# According to patent publication US4146622A, “Aziridinyl quinone anti-transplanted tumor agents” (priority 1977, dated 1979):
# Where “and” joins values, the source holds several entries; their conditions need not be identical. Equal values may be shown once. Entries after “also recorded” stand apart in the source; their conditions may differ. Read-outs that look alike come from different tables or passages of the source.
# Columns and labels:
# [1] = test system: B16 melanocarcinoma; test: Intraperitoneal B16 melanocarcinoma transplanted mouse tumor test; type: in vivo, murine; details: Table IX; B16, QD1-9, at OD
# [2] = test system: lymphoid leukemia L1210; test: Intracerebral (IC) lymphoid leukemia L1210 test; type: in vivo, murine; details: for antitumor activity: IC L1210; for OD (optimum dose): IC L1210, QD1-9
# Text: ^b Ic tumor implantation, ip QD1-9 treatment schedule.
# The L1210, P388 and B16 test systems described in Table II utilize intraperitoneal (IP) tumor implantation and IP drug treatment while the Lewis lung system employs subcutaneous tumor implantation and IP treatment. All three CNS tumor models (Table III) use intracerebral (IC) tumor implantation and IP treatment.
# Consistent with NCI antitumor test protocols, intraperitoneal (IP) administration of the drug was employed with all five tumor systems investigated. Tumor implantation was IP in the systems designated IP leukemia L1210 and P388 as well as B16 melanoma. Intracerebral (IC) tumor implantation was utilized in the IC L1210 and ependymoblastoma tumor systems.
# [3] = test system: ependymoblastoma; test: Intracerebral (IC) ependymoblastoma (EM) brain tumor test; type: in vivo, murine; details: for OD (optimum dose): QD1-5
# Text: ^c Ic tumor implantation, ip QD1-5 treatment schedule.
# ^g Number of animals alive per six test animals on day of termination
# of experiment (day 99 for expt 133 and day 60 for expt 136 and 144).
# A third IC transplanted mouse tumor model, the ependymoblastoma system, was also studied. This system requires intracerebral implantation of a solid tumor fragment while the IC L1210 and IC P388 systems utilize IC inoculated ascites tumor fluid. All three use IP drug treatment however. […] Cures (survivors from the group of six mice on the last day of the experiment) are indicated. Experiments 136 and 144 were terminated on day 60. Since the number of cures was about the same, the differences in T/C values in these two experiments reflect differences in the life span of the two different sets of control animals. Experiment 133 was terminated on day 99 with a resulting higher activity value.
# The hydrophilic dihydroxypropylamino compound (No. 39), which was curative in the IP L1210 and P388 leukemia systems, was active but gave a large spread in ILS values (53-186%). […] Again, its hydrophilic character may present transport problems in this IC tumor system.
# [4] = Room temperature water solubility; type: physicochemical
# Experimental: In the following examples, all melting points are uncorrected and were recorded on a Thomas-Hoover capillary melting point apparatus. Elemental analyses were performed by NIAMDD, NIH, Bethesda, Maryland. Fluoranil, ethyleneimine and 2l -methylethyleneimine were obtained commerically. […] New compounds were identified by nmr and ir spectroscopy. In the tetraamino derivatives, the methylene protons of the aziridine rings usually occurred as a singlet at δ2.0-2.2 in CDCl3 or DMSO-d6. This absorption appeared at δ2.40 (CDCl3) for compound 11. Carbonyl absorption frequencies (nujol mull) occurred in the range 1620-1640 cm^-1 for the tetraamino compounds. Satisfactory elemental analyses (+0.4% of calculated values) are indicated by elemental symbols in Table VII. Room temperature water solubilities were determined by the incremental addition (pipet) of water to a weighed amount of compound with shaking. The solubility values in Table VII must be considered as approximate.
# [5] = test system: lymphoid leukemia L1210; test: Intraperitoneal (IP) lymphoid leukemia L1210 transplanted mouse tumor test; type: in vivo, murine; details: for animals alive per 6 test animals on day of termination / survivors (number in parentheses) IP L1210: day 30; for survivors (number in parentheses) IP L1210: per 6 test animals
# Text: ^(a) Day 1-9 treatment schedule (9 injections)
# ^(b) Day 1,5,9 treatment schedule (3 injections)
# ^(c) Day 1 only treatment schedule (1 injection)
# ^(f) Percentage increase in life span of treated animals [(treated
# survival .div. control survival) × 100%] - 100%
# [6] = Octanol/H2O partition coefficient (log P); type: physicochemical; details: octanol/water; Table VII; octanol/H2O
# Text: ^(b) Octanol/H2 O values determined by C. Hansch and M. Yamakawa
# [7] = test system: IP ascites tumor systems (leukemia L1210 and P388); test: IP ascites tumor systems (leukemia L1210 and P388); type: in vivo, murine
# Text: The criterion for minimum activity, %ILS, is defined here as follows: Intraperitoneal and intracerebral leukemia L1210 and intraperitoneal leukemia P388, 25%; intraperitoneal B16 melanoma and intracerebral ependymoblastoma, 40%. Consistent with NCI antitumor test protocols, intraperitoneal (IP) administration of the drug was employed with all five tumor systems investigated. Tumor implantation was IP in the systems designated IP leukemia L1210 and P388 as well as B16 melanoma. Intracerebral (IC) tumor implantation was utilized in the IC L1210 and ependymoblastoma tumor systems.
# [8] = test system: P388 lymphocytic leukemia; test: Intraperitoneal (IP) lymphocytic leukemia P388 transplanted mouse tumor test; type: in vivo, murine; details: for OD (optimum dose) / ILS (percentage increase in life span) / animals alive per 6 test animals on day of termination: Table IX; for OD (optimum dose): IP P388, QD1-9; for ILS (percentage increase in life span) / animals alive per 6 test animals on day of termination: IP P388, QD1-9, at OD; for animals alive per 6 test animals on day of termination / survivors (number in parentheses) P388: day 30; for survivors (number in parentheses) P388: Table XI, per 6 test animals
# [9] = Table X, IC L1210, QD1-9, at OD
# [10] = Table X, IC ependymoblastoma, QD1-5, at OD
# [11] = water, Table VII, room temperature, approximate, read-out: Approx. H2O Sol.
# [12] = Table VIII, IP L1210, Day 1 only (1 injection)
# [13] = Table VIII, IP L1210, Q4D(1,5,9), at OD
# [14] = Table VIII, IP L1210, QD1-9 (9 injections)
# [15] = Table VIII, IP L1210, QD1-9, at OD
smiles,measurement,setting,value
O=C1C(N2CCN(CCO)CC2)=C(N2CC2)C(=O)C(N2CCN(CCO)CC2)=C1N1CC1 [Compound 47],ILS (percentage increase in life span),[1],22%
same,antitumor activity,[2],marginal
same,OD (optimum dose),[2]; Table X,2.0 mg/kg/injection and 1.5 mg/kg/injection
same,ILS (percentage increase in life span),[2]; [9],43% and 41%
same,T - C (average weight change of test group minus control),"[2]; Table X, IC L1210, QD1-9, at OD, day 5",-1.4 grams
same,OD (optimum dose),"[3]; Table X, IC ependymoblastoma",1.0 mg/kg/injection
same,ILS (percentage increase in life span),[3]; [10],75%
same,solubility,[4]; [11],20 mg/mL
same,OD (optimum dose),[5]; [12],4.0 mg/kg/injection
same,OD (optimum dose),"[5]; Table VIII, IP L1210, Q4D(1,5,9) (3 injections)",4.0 mg/kg/injection and 2.0 mg/kg/injection
same,animals alive per 6 test animals on day of termination,[5]; [13],3 and 4
same,OD (optimum dose),[5]; [14],1.0 mg/kg/injection and 0.5 mg/kg/injection
same,T - C (average weight change of test group minus control),"[5]; Table VIII, IP L1210, QD1-9, at OD, day 5",-1.7 grams
same,animals alive per 6 test animals on day of termination,[5]; [15],1
same,survivors (number in parentheses) IP L1210,[5]; Table XI,3
same,cures,"[5]; survivors on day 30, L1210",produced cures
same,logP,[6],-0.75
same,antitumor activity,[7],most active; also recorded: superior
same,antitumor activity,[8]; IP P388,very active
same,cures,"[8]; P388, 30 day survivors, QD1-9",multiple cures
same,OD (optimum dose),[8],0.5 mg/kg/injection and 1.0 mg/kg/injection
same,ILS (percentage increase in life span),[8],149% and 143%
same,animals alive per 6 test animals on day of termination,[8],3 and 6
same,survivors (number in parentheses) P388,[8],3
"NC1=C(N2CC2)C(=O)C(N)=C(N2CC2)C1=O [Compound 33, 2,5-Dizairidinyl-3,6-diamino-1,4-benzoquinone]",ILS (percentage increase in life span),[1],31% and 19%
same,antitumor activity,[2],most active; also recorded: significant activity
same,OD (optimum dose),[2]; Table X,0.3 mg/kg/injection
same,ILS (percentage increase in life span),[2]; [9],60% and 59%
same,ILS (%) IC L1210,"[2]; Table XI, outstanding activity",60%
same,antitumor activity,[3]; IC ependymoblastoma (EM),among the most active materials
same,OD (optimum dose),"[3]; Table X, IC ependymoblastoma",0.2 mg/kg/injection
same,ILS (percentage increase in life span),[3]; [10],215% and 177%
same,animals alive per 6 test animals on day of termination,"[3]; Table X, IC ependymoblastoma, QD1-5, at OD, day 60",4 and 6
same,survivors (number in parentheses) EM,"[3]; Table XI, per 6 test animals, day 60",6
same,solubility,[4],insoluble in any solvent; also recorded: exceptionally insoluble
same,solubility,[4]; [11],< 0.1 mg/mL
same,OD (optimum dose),[5]; [12],1.0 mg/kg/injection and 0.5 mg/kg/injection
same,ILS (percentage increase in life span),[5]; [13],161% and 124%
same,animals alive per 6 test animals on day of termination,[5]; [13],3 and 2
same,OD (optimum dose),[5]; [14],0.4 mg/kg/injection and 0.3 mg/kg/injection
same,ILS (percentage increase in life span),[5]; [15],115% and 100%
same,ILS (%) IP L1210,"[5]; Table XI, outstanding activity",161%
same,survivors (number in parentheses) IP L1210,[5]; Table XI,3
same,antitumor activity,[7],active
same,OD (optimum dose),[8],0.2 mg/kg/injection
same,ILS (percentage increase in life span),[8],171% and 156%
same,animals alive per 6 test animals on day of termination,[8],1
same,survivors (number in parentheses) P388,[8],1
